ChEMBL document CHEMBL1201862, “PubChem BioAssay data set” (2004)
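Five compound concentrations were applied to cells in 96-well plates for 48 hours; endpoints were derived by simple linear interpolation of the resulting dose-response curve. GI50 is the concentration that inhibits growth by half.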 Active and inactive are the calls of the source. Cut-off read from the data, not from the text of the source: active = GI50 up to about 1.1 µM and inactive = higher.

Tests used:
Assay in all cases: NCI anticancer screen, dose series, 48 h
[1] = test system: M19-MEL
[2] = test system: XF498
[3] = test system: DMS-114
[4] = test system: KM-20L2
[5] = test system: SNB-78
[6] = test system: HOP-18
[7] = test system: DLD-1
[8] = test system: LXFL 529
[9] = test system: RXF 631

Row | SMILES | GI50 [1] | GI50 [2] | GI50 [3] | GI50 [4] | GI50 [5] | GI50 [6] | GI50 [7] | GI50 [8] | GI50 [9]
1 | O=C1CCC2(O)c3ccccc3C2Cc2ccccc21 (stereo not drawn) | > 100 µM (inactive) | > 100 µM (inactive) | > 100 µM (inactive) | > 100 µM (inactive) | > 100 µM (inactive) | > 100 µM (inactive) | > 100 µM (inactive) | – | –
2 | CCN(CC)CCC(=O)N1C/C(=C/c2ccccc2)C(=O)/C(=C\c2ccccc2)C1 | 1.39 µM (inactive) | 2.63 µM (inactive) | 1.79 µM (inactive) | 1.71 µM (inactive) | – | 2.8 µM (inactive) | 1.29 µM (inactive) | 1.56 µM (inactive) | –
3 | COc1cc(NCc2ccc3nc(N)nc(N)c3c2C)cc(OC)c1OC | 0.326 µM (active) | 2.57 µM (inactive) | 0.025 µM (active) | 0.0347 µM (active) | 5.42 µM (inactive) | 7.29 µM (inactive) | 0.0253 µM (active) | – | –
4 | CCCCCCCCCCCCC(CC)CCCCC(=O)O (stereo not drawn) | > 100 µM (inactive) | > 100 µM (inactive) | > 100 µM (inactive) | > 100 µM (inactive) | > 100 µM (inactive) | > 100 µM (inactive) | > 100 µM (inactive) | > 100 µM (inactive) | > 100 µM (inactive)
5 | COC1=CC(=O)c2c(O)c3c(c(O)c2C1=O)C=C(C)OC3O (stereo not drawn) | 0.224 µM (active) | 1.84 µM (inactive) | 1.23 µM (inactive) | 0.365 µM (active) | 1.73 µM (inactive) | – | 0.665 µM (active) | 1.36 µM (inactive) | –
6 | COC(=O)CCCCCOS(=O)(=O)c1ccc(C)cc1 | > 100 µM (inactive) | > 100 µM (inactive) | > 100 µM (inactive) | > 100 µM (inactive) | > 100 µM (inactive) | > 100 µM (inactive) | > 100 µM (inactive) | > 100 µM (inactive) | > 100 µM (inactive)
7 | CCCCCCCCCC[S+]([O-])CC(CO)NC(=O)/C=C/c1c(C)nc(O)nc1O (stereo not drawn) | 0.475 µM (active) | 0.0376 µM (active) | 0.152 µM (active) | 0.695 µM (active) | 0.718 µM (active) | 1.49 µM (inactive) | 0.476 µM (active) | – | –
8 | COc1cc2c(c(OC)c1OC)-c1ccc(SC)c(=O)cc1[C@@H](NCc1cccc(C#N)c1)CC2 | 0.0193 µM (active) | 0.0257 µM (active) | 0.0153 µM (active) | 0.0131 µM (active) | 0.0197 µM (active) | – | 0.0245 µM (active) | 0.0147 µM (active) | 0.0075 µM (active)
9 | O=C(/C=C\c1cccc2ccccc12)c1ccc(Br)cc1 | 19 µM (inactive) | – | 15 µM (inactive) | 16.3 µM (inactive) | 20.6 µM (inactive) | 19.2 µM (inactive) | 20.5 µM (inactive) | 18.1 µM (inactive) | –
10 | N/N=C(/C(=O)Nc1cccc(Cl)c1)C(C(=O)c1ccc(O)cc1O)C1OC(=O)c2ccccc21 (stereo not drawn) | > 100 µM (inactive) | – | > 100 µM (inactive) | > 100 µM (inactive) | > 100 µM (inactive) | – | – | > 100 µM (inactive) | –
11 | CCOC(=O)c1nc(-c2ccccc2)oc1OCC | > 100 µM (inactive) | 21.2 µM (inactive) | > 100 µM (inactive) | > 100 µM (inactive) | > 100 µM (inactive) | > 100 µM (inactive) | > 100 µM (inactive) | > 100 µM (inactive) | –
12 | COc1ccc(C(=C[N+](=O)[O-])c2ccc(OC)cc2)cc1 | – | – | 4.13 µM (inactive) | 10.6 µM (inactive) | 14.7 µM (inactive) | > 100 µM (inactive) | 16.7 µM (inactive) | 16.2 µM (inactive) | 14 µM (inactive)
